Legend:
Type in all cases: in vivo
[1] = test system: Cabbage Looper (Trichoplusia ni, TRIPNI); experiment: Bioassay on Cabbage Looper (CL), 128-well diet tray assay; details: 168 h, 50 μg/cm^2 on artificial diet, second instar larvae, 25° C., five to seven days, average of eight wells, read-out: CL % Control (or Mortality) rating
Procedure, shortened: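 Test molecule is dissolved in 90:10 acetone-water and applied at 50 μg/cm^2 onto artificial diet, then dried. One to five second-instar larvae go into each of eight wells. Trays, sealed but vented, stay at 25° C., 14:10 light-dark, five to seven days, after which mortality is averaged.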

[2] = test system: Beet Armyworm (Spodoptera exigua, LAPHEG); experiment: Bioassay on Beet Armyworm (BAW), 128-well diet tray assay; details: 168 h, 50 μg/cm^2 on artificial diet, second instar larvae, 25° C., five to seven days, average of eight wells, read-out: BAW % Control (or Mortality) rating
Procedure, shortened: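 Second-instar larvae, one to five per well, placed on artificial diet surface-treated with 50 μg/cm^2 compound applied in 90:10 acetone-water and dried. Held 5–7 days at 25° C., 14:10 light-dark. Percent mortality recorded per well and averaged over eight wells.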

[3] = test system: Yellow Fever Mosquito (Aedes aegypti, AEDSAE); details: about 1 day-old larvae, 96-well plate from 4000 ppm DMSO master, 3 days at room temperature
Experimental: Certain molecules disclosed in this document were tested against YFM using procedures described in the following paragraph. In the reporting of the results, the “GPA & YFM Rating Table” was used (See Table Section).
Master plates containing 400 μg of a molecule dissolved in 100 μL of dimethyl sulfoxide (DMSO) (equivalent to a 4000 ppm solution) are used. A master plate of assembled molecules contains 15 μL per well. To this plate, 135 μL of a 90:10 water/acetone mixture is added to each well. A robot is programmed to dispense 15 μL aspirations from the master plate into an empty 96-well shallow plate (“daughter” plate). There are 6 reps (“daughter” plates) created per master. The created “daughter” plates are then immediately infested with YFM larvae.
The day before plates are to be treated, mosquito eggs are placed in Millipore water containing liver powder to begin hatching (4 g. into 400 mL). After the “daughter” plates are created using the robot, they are infested with 220 μL of the liver powder/larval mosquito mixture (about 1 day-old larvae). After plates are infested with mosquito larvae, a non-evaporative lid is used to cover the plate to reduce drying. Plates are held at room temperature for 3 days prior to grading. After 3 days, each well is observed and scored based on mortality. The results are indicated in the table entitled “Table ABC: Biological Results” (See Table Section).

For O=C(NC1CCNC1=O)c1cc(NC(=O)C2C(c3cc(Cl)cc(Cl)c3)C2(Cl)Cl)ccc1Cl (stereo not drawn) [PF29, trans-2-Chloro-5-(2,2-dichloro-3-(3,5-dichlorophenyl)cyclopropane-1-carbox-amido)-N-(2-oxopyrrolidin-3-yl)benzamide], the mortality at 50 µg/cm2 [1] was 50 to 100%, the mortality at 50 µg/cm2 [2] was 50 to 100% and the “YFM % Control (or Mortality) rating” value [3] was “B (More than 0-Less than 80)”.

For O=C1CC(NC(=O)c2cc(NC(=O)[C@H]3[C@H](c4cc(Cl)cc(Cl)c4)C3(Cl)Cl)ccc2Cl)C1 (relative stereo) [Molecule F68, trans-2-chloro-5-(2,2-dichloro-3-(3,5-dichloro-phenyl)cyclopropane-1-carboxamido)-N-(3-oxocyclobutyl)benzamide], the mortality at 50 µg/cm2 [1] was 50 to 100%, the mortality at 50 µg/cm2 [2] was 50 to 100% and the “YFM % Control (or Mortality) rating” value [3] was “A (80-100)”.

COC(=O)C1(NC(=O)c2cc(NC(=O)[C@H]3[C@H](c4cc(Cl)cc(Cl)c4)C3(Cl)Cl)ccc2Cl)CCCC1 (relative stereo) [PF33, trans-Methyl 1-(2-chloro-5-(2,2-dichloro-3-(3,5-dichlorophenyl)cyclopropane-carboxamido)benzamido)cyclopentanecarboxylate] was tested, and the mortality at 50 µg/cm2 [1] was 50 to 100%, the mortality at 50 µg/cm2 [2] was 0 to 50% and the “YFM % Control (or Mortality) rating” value [3] was “D (No activity noticed in this bioassay)”.

N#CC1CCC(NC(=O)c2cc(NC(=O)[C@H]3[C@H](c4cc(Cl)c(Cl)c(Cl)c4)C3(Cl)Cl)ccc2Cl)C1 (relative stereo) [Molecule F39, trans-2-Chloro-N-(3-cyanocyclopentyl)-5-(2,2-dichloro-3-(3,4,5-trichlorophenyl)cyclopropanecarboxamido)benzamide] was tested, and the mortality at 50 µg/cm2 [1] was 50 to 100%, the mortality at 50 µg/cm2 [2] was 50 to 100% and the “YFM % Control (or Mortality) rating” value [3] was “A (80-100)”.

N#CC1(NC(=O)c2cc(NC(=O)[C@H]3[C@H](c4ccc(C(F)F)c(F)c4)C3(Cl)Cl)ccc2Cl)CC1 (relative stereo) [Molecule F90, trans-2-Chloro-N-(1-cyanocyclopropyl)-5-(2,2-dichloro-3-(4-(difluoromethyl)-3-fluorophenyl)cyclopropane-1-carboxamido)benzamide] was tested, and the mortality at 50 µg/cm2 [1] was 50 to 100%, the mortality at 50 µg/cm2 [2] was 50 to 100% and the “YFM % Control (or Mortality) rating” value [3] was “A (80-100)”.

In the case of N#CC1CCC(NC(=O)c2cc(NC(=O)[C@H]3[C@H](c4cc(Cl)cc(Cl)c4)C3(Cl)Cl)ccc2Cl)C1 (relative stereo) [Molecule F35, trans-2-Chloro-N-(3-cyanocyclopentyl)-5-(2,2-dichloro-3-(3,5-dichlorophenyl)cyclopropanecarboxamido)benzamide], the mortality at 50 µg/cm2 [1] is reported as 50 to 100%, the mortality at 50 µg/cm2 [2] is reported as 50 to 100% and the “YFM % Control (or Mortality) rating” value [3] is reported as “A (80-100)”.

For C[C@@]1(c2cc(Cl)cc(Cl)c2)[C@H](C(=O)Nc2ccc(Cl)c(C(=O)NC3CC(F)(F)C3)c2)C1(Cl)Cl (relative stereo) [Molecule F62, cis-2-Chloro-5-(2,2-dichloro-3-(3,5-dichlorophenyl)-3-methylcyclopropane-1-carboxamido)-N-(3,3-difluorocyclobutyl)benzamide], the mortality at 50 µg/cm2 [1] was 0 to 50%, the mortality at 50 µg/cm2 [2] was 0 to 50% and the “YFM % Control (or Mortality) rating” value [3] was “D (No activity noticed in this bioassay)”.

In the case of N#CC1(NC(=O)c2cc(NC(=O)[C@H]3[C@H](c4ccc(Cl)c(C(F)F)c4)C3(Cl)Cl)ccc2Cl)CC1 (relative stereo) [Molecule F86, trans-2-Chloro-N-(1-cyanocyclopropyl)-5-(2,2-dichloro-3-(4-chloro-3-(difluoro-methyl)phenyl)cyclopropane-1-carboxamido)benzamide], the mortality at 50 µg/cm2 [1] is reported as 50 to 100%, the mortality at 50 µg/cm2 [2] is reported as 50 to 100% and the “YFM % Control (or Mortality) rating” value [3] is reported as “A (80-100)”.

For N#CC1(NC(=O)c2cc(NC(=O)[C@H]3[C@H](c4cc(Cl)cc(C(F)F)c4)C3(Cl)Cl)ccc2Cl)CC1 (relative stereo) [Molecule F85, trans-2-Chloro-N-(1-cyanocyclopropyl)-5-(2,2-dichloro-3-(3-chloro-5-(difluoro-methyl)phenyl)cyclopropane-1-carboxamido)benzamide], the mortality at 50 µg/cm2 [1] was 50 to 100%, the mortality at 50 µg/cm2 [2] was 50 to 100% and the “YFM % Control (or Mortality) rating” value [3] was “A (80-100)”.

In the case of N#CC1(NC(=O)c2cc(NC(=O)[C@H]3[C@H](c4cc(F)cc(Cl)c4)C3(Cl)Cl)ccc2Cl)CC1 (relative stereo) [PF1, trans-2-Chloro-N-(1-cyanocyclopropyl)-5-(2,2-dichloro-3-(3-chloro-5-fluorophenyl)cyclopropane-1-carboxamido)benzamide], the mortality at 50 µg/cm2 [1] is reported as 50 to 100%, the mortality at 50 µg/cm2 [2] is reported as 50 to 100% and the “YFM % Control (or Mortality) rating” value [3] is reported as “A (80-100)”.

COc1c(F)cc([C@H]2[C@H](C(=O)Nc3ccc(Cl)c(C(=O)NC4(C#N)CC4)c3)C2(Cl)Cl)cc1Br (relative stereo) [Molecule F84, trans-5-(3-(3-Bromo-5-fluoro-4-methoxyphenyl)-2,2-dichlorocyclopropane-1-carboxamido)-2-chloro-N-(1-cyanocyclopropyl)benzamide] was tested, and the mortality at 50 µg/cm2 [1] was 50 to 100%, the mortality at 50 µg/cm2 [2] was 50 to 100% and the “YFM % Control (or Mortality) rating” value [3] was “A (80-100)”.

In the case of N#CC1(NC(=O)c2cc(NC(=O)[C@H]3[C@H](c4ccc(Br)c(Cl)c4)C3(Cl)Cl)ccc2Cl)CC1 (relative stereo) [Molecule F66, trans-5-(3-(4-bromo-3-chlorophenyl)-2,2-dichlorocyclopropane-1-carboxamido)-2-chloro-N-(1-cyanocyclopropyl)benzamide], the mortality at 50 µg/cm2 [1] is reported as 50 to 100%, the mortality at 50 µg/cm2 [2] is reported as 50 to 100% and the “YFM % Control (or Mortality) rating” value [3] is reported as “A (80-100)”.

O=C(NC1CC(F)(F)C1)c1cc(NC(=O)[C@H]2[C@H](c3cc(F)cc(Cl)c3)C2(Cl)Cl)ccc1Cl (relative stereo) [PF5, trans-2-Chloro-5-(2,2-dichloro-3-(3-chloro-5-fluorophenyl)cyclopropane-1-carboxamido)-N-(3,3-difluorocyclobutyl)benzamide] was tested, and the mortality at 50 µg/cm2 [1] was 50 to 100%, the mortality at 50 µg/cm2 [2] was 50 to 100% and the “YFM % Control (or Mortality) rating” value [3] was “B (More than 0-Less than 80)”.

In the case of C=Cc1ccc([C@H]2[C@H](C(=O)Nc3ccc(Cl)c(C(=O)NC4(C#N)CC4)c3)C2(Cl)Cl)cc1Cl (relative stereo) [Molecule F67, trans-2-chloro-N-(1-cyanocyclopropyl)-5-(2,2-dichloro-3-(3-chloro-4-vinylphenyl)cyclopropane-1-carboxamido)benzamide], the mortality at 50 µg/cm2 [1] is reported as 50 to 100%, the mortality at 50 µg/cm2 [2] is reported as 50 to 100% and the “YFM % Control (or Mortality) rating” value [3] is reported as “A (80-100)”.

For N#CC1(NC(=O)c2cc(NC(=O)[C@@H]3[C@@H](c4cc(Cl)cc(Cl)c4)C3(Cl)Cl)ccc2Cl)CC1 [Molecule F76, 2-Chloro-N-(1-cyanocyclopropyl)-5-((1S,3S)-2,2-dichloro-3-(3,5-dichloro-phenyl)cyclopropanecarboxamido)benzamide], the mortality at 50 µg/cm2 [1] was 50 to 100%, the mortality at 50 µg/cm2 [2] was 50 to 100% and the “YFM % Control (or Mortality) rating” value [3] was “A (80-100)”.

O=C(NC1CCC(F)(F)CC1)c1cc(NC(=O)[C@H]2[C@H](c3cc(Cl)c(Cl)c(Cl)c3)C2(Cl)Cl)ccc1Cl (relative stereo) [Molecule F45, trans-2-Chloro-5-(2,2-dichloro-3-(3,4,5-trichlorophenyl)cyclopropanecarboxamido)-N-(4,4-difluorocyclohexyl)benzamide] was tested, and the mortality at 50 µg/cm2 [1] was 50 to 100%, the mortality at 50 µg/cm2 [2] was 50 to 100% and the “YFM % Control (or Mortality) rating” value [3] was “A (80-100)”.

For N#CC1(NC(=O)c2cc(NC(=O)[C@@H]3[C@@H](c4cc(Cl)c(Cl)c(Cl)c4)C3(Cl)Cl)ccc2Cl)CC1 [Molecule F64, 2-Chloro-N-(1-cyanocyclopropyl)-5-((1S,3S)-2,2-dichloro-3-(3,4,5-trichloro-phenyl)cyclopropane-1-carboxamido)benzamide], the mortality at 50 µg/cm2 [1] was 50 to 100%, the mortality at 50 µg/cm2 [2] was 50 to 100% and the “YFM % Control (or Mortality) rating” value [3] was “A (80-100)”.

In the case of O=C(NC1CC(F)(F)C1)c1cc(NC(=O)[C@H]2[C@H](c3ccc(Cl)c(F)c3)C2(Cl)Cl)ccc1Cl (relative stereo) [PF6, trans-2-Chloro-5-(2,2-dichloro-3-(4-chloro-3-fluorophenyl)cyclopropane-1-carboxamido)-N-(3,3-difluorocyclobutyl)benzamide], the mortality at 50 µg/cm2 [1] is reported as 50 to 100%, the mortality at 50 µg/cm2 [2] is reported as 50 to 100% and the “YFM % Control (or Mortality) rating” value [3] is reported as “D (No activity noticed in this bioassay)”.

N#CC1(NC(=O)c2cc(NC(=O)[C@H]3[C@H](c4ccc(F)c(C(F)F)c4)C3(Cl)Cl)ccc2Cl)CC1 (relative stereo) [Molecule F88, trans-2-Chloro-N-(1-cyanocyclopropyl)-5-(2,2-dichloro-3-(3-(difluoromethyl)-4-fluorophenyl)cyclopropane-1-carboxamido)benzamide] was tested, and the mortality at 50 µg/cm2 [1] was 50 to 100%, the mortality at 50 µg/cm2 [2] was 50 to 100% and the “YFM % Control (or Mortality) rating” value [3] was “A (80-100)”.

Source: patent publication US9795139B2, “Molecules having pesticidal utility, and intermediates, compositions, and processes, related thereto” (priority 2015, dated 2017)
